≈ marks a conversion by molar mass, not a printed value. Where two headings read alike, the source gives them in different places.
Test: Solubility of budesonide at room temperature
Assay type: physicochemical
Method: The solubility at room temperature of budesonide in water was determined to be about. 0.01 mg/ml, about 1 mg/ml in glycerin and about 10 mg/ml in propylene glycol at room temperature.

CCCC1O[C@@H]2C[C@H]3[C@@H]4CCC5=CC(=O)C=C[C@]5(C)[C@H]4[C@@H](O)C[C@]3(C)[C@]2(C(=O)CO)O1 (stereo partly drawn) [budesonide, 16,17-butylidenebis(oxy)-11,21-dihydroxy-, (11β, 16α)-pregna-1,4-diene-3,20-dione]
solubility (organic solvent or mixture, glycerin, read-out: solubility in glycerin): ~1000 µg/mL (≈ 2320 µM) | solubility (organic solvent or mixture, propylene glycol, read-out: solubility in propylene glycol): ~10000 µg/mL (≈ 23200 µM) | solubility (water, read-out: solubility in water): ~10 µg/mL (≈ 23.2 µM)

Source: patent US12539306B2, “Mucoadhesive pharmaceutical compositions of corticosteroids” (Ferring B.V., priority 2018, dated 2026)
